The record followed here is patent US4735959A, “Carboxylic acid amides and pharmaceutical compositions containing them” (Dr. Karl Thomae GmbH, priority 1981, dated 1988).

Molecules are shown by their SMILES. Read-outs that look alike come from different tables or passages of the source. Bounds are passed on as bounds.

Assay type in all cases: in vivo
The subject of one series is blood-sugar. As to the kind of experiment: Blood-sugar lowering activity in starved female rats after oral administration. Particulars: for Blood-sugar lowering activity, percent as compared with the controls / change in vivo at 1 mg/kg: 1 mg/kg orally; for change in vivo at 1 mg/kg / change in vivo at 5 mg/kg / change in vivo at 10 mg/kg: Rattus norvegicus, po, read-out: Blood-sugar lowering activity, percent as compared with the controls; for change in vivo at 5 mg/kg: 5 mg/kg orally; for change in vivo at 10 mg/kg: 10 mg/kg orally (footnote *).

Series [1] is described as follows: Acute toxicity in female and male mice after oral administration of a single dose. As to conditions: mouse, in vivo, observation time 14 days, read-out: Peroral Toxicity. The procedure: (§1) The acute toxicity was determined in home-bred female and male mice having body weights of from 20 to 26 gm after oral administration (suspension in a 1% methyl cellulose solution) of a single dose. Observation time: 14 days.

In another series the test system is mice. Described as above. Particulars: observation time 14 days. The procedure:
as §1

Setting [2] is: 4 hours, n.s. = not statistically significant.
Setting [3] is: 1 hour, n.s. = not statistically significant.
[4] abbreviates: 2 hours, n.s. = not statistically significant.
Where [5] appears, read: 3 hours, n.s. = not statistically significant.

`O=C(Cc1ccc(C(=O)O)cc1)NC(c1ccc(Cl)cc1)c1ccccc1N1CCCCC1` (stereo not drawn) [AE, 4-[(α-(4-Chloro-phenyl)-2-piperidino-benzyl)-aminocarbonylmethyl]-benzoic acid]: in the series on blood-sugar (setting [2]), the “Blood-sugar lowering activity, percent as compared with the controls” value was “n.s”. Also, the results for the change in vivo at 1 mg/kg in the series with blood-sugar (setting [3]), with blood-sugar (setting [4]) and in the series with blood-sugar (setting [5]) were -21%, -20% and -22%, respectively. For the same molecule, the change in vivo at 5 mg/kg in the series with blood-sugar (setting [3]) was -30%; with blood-sugar (setting [4]) it was -28%; in the series on blood-sugar (setting [5]), -39%; with blood-sugar (setting [2]), -36%. Also, the LD50 at 336 h in series [1] was more than 1000 mg/kg. Also, the animals died with mice is given as 0 out of 10.

For the molecule `O=C(Cc1ccc(C(=O)O)cc1)NC(c1ccccn1)c1ccccc1N1CCCCC1` (stereo not drawn) [AG, 4-[(2-Piperidino-α-(2-pyridyl)-benzyl)-aminocarbonylmethyl]-benzoic acid], the “Blood-sugar lowering activity, percent as compared with the controls” value in the series on blood-sugar (setting [4]), in the series on blood-sugar (setting [5]) and in the series with blood-sugar (setting [2]) was “n.s” in each case. Besides, the change in vivo at 1 mg/kg in the series with blood-sugar (setting [3]) is -18%. In addition, the change in vivo at 10 mg/kg in the series with blood-sugar (1 hour) was -49%; with blood-sugar (2 hours), -50%; with blood-sugar (setting [5]), -36%; with blood-sugar (setting [2]), -31%. The LD50 at 336 h in series [1] was more than 1000 mg/kg. For the same molecule, in the series with mice, the animals died was 0 out of 10.

Turning to `CC/C=C(/NC(=O)Cc1ccc(C(=O)O)cc1)c1ccccc1N1CCCCC1` [C, (E)-4-[(1-(2-Piperidino-phenyl)-1-buten-1-yl)-aminocarbonylmethyl]-benzoic acid], the change in vivo at 1 mg/kg in the series with blood-sugar (setting [3]) was -43%; in the series on blood-sugar (setting [4]) it was -43%; in the series with blood-sugar (setting [5]) it was -37%; in the series on blood-sugar (setting [2]) it was -38%. Also, the LD50 at 336 h in series [1] is more than 2000 mg/kg. Besides, the animals died in the series on mice is 0 out of 6.

Take `CC(C)=C(NC(=O)Cc1ccc(C(=O)O)cc1)c1ccccc1N1CCCCC1` [D, 4-[(2-Methyl-1-(2-piperidino-phenyl)-1-propen-1-yl)-aminocarbonylmethyl]-benzoic acid]: the change in vivo at 1 mg/kg in the series with blood-sugar (setting [3]) is -36%; in the series on blood-sugar (setting [4]) it was -32%; with blood-sugar (setting [5]), -27%; in the series with blood-sugar (setting [2]), -25%. Besides, in series [1], the LD50 at 336 h was more than 500 mg/kg. Further, in the series with mice, the animals died is 0 out of 6.
